Laboratory results: patent US20260217674A1 (priority 2023, published 2026)
Read-outs that look alike come from different tables or passages of the source.

Assays:
[1] = molecular target: acetylcholinesterase (AChE) (Homo sapiens, UniProt P22303); assay: biochemical; format: biochemical; conditions: for inhibition at 0.001 µM: read-out: % Inhibition (1 nM); for inhibition at 0.01 µM: read-out: % Inhibition (10 nM); for inhibition at 0.1 µM: read-out: % Inhibition (100 nM)
Procedure: A solution of each tested compound is prepared by dissolving the compound in DMSO at 1 mM stock solution and diluting with water to the following concentration 100 nM, 10 nM and 1 nM.
The procedure of MAK119 kit assay of Sigma Aldrich (colorimetric test) has been followed as described:
The Working Reagent (MAK119C) of the kit is prepared fresh and used within 30 minutes.
A solution B made with […] of water and […] of Calibrator (MAK119B of the kit) is distributed into separate wells of the 96-well plate. […] of the solution of the tested compound is added into wells and then […] of the solution A is added to all sample wells.
The plate was incubated at room temperature for 2 min and the initial absorbance at 412 nm (A412)ini was measured. After 10 min of incubation at room temperature the final measurement (A412)final.
The following calculation is then achieved: […] Inhibition was calculated by comparing the absorbance of the samples containing the tested compounds at 412 nm (A412) and of the absorbance of the negative and positive controls after 12 min of incubation.

VGLUT3^T8I/T8I mice = assay: Activity-based anorexia (ABA) model in hypocholinergic VGLUT3^T8I/T8I mice; format: in vivo; conditions: for percentage of mice weighing at least 75% of their baseline body weight: after 8 days
Excerpt: Self-starvation behaviors are modeled in the activity-based anorexia (ABA) test (Klenotich, S. J., Dulawa, 2012 Methods Mol Biol 829, 377-93). In this test, animals are housed in the presence of a running wheel. Access to food is progressively restricted over a period of 8 days. For these animal experiments, an hypocholinergic mouse model was used. The type 3 atypical vesicular transporter (VGLUT3) is expressed by all cholinergic striatal interneurons (El Mestikawy et al. 2011, Nat Rev Neurosci 12(4), 204-16).
In 2015, the El Mestikawy team discovered a p.T8I variant of VGLUT3 expressed in patients suffering from substance use disorder and from eating disorders (Sakae et al. Mol Psychiatry, 2015, 20(11), 1448-59). Mice expressing this variant (VGLUT3^T8I/T8I mice) have a reduced cholinergic tone in the striatum and are more vulnerable to self-starvation in the ABA model. In other terms, VGLUT3^T8I/T8I mice present the same main symptomology than anorexic patients and are considered to be a model of choice for anorexia.
The ABA model was performed as described by Klenotich and Dulawa (Klenotich, S. J., Dulawa, 2012 Methods Mol Biol 829, 377-93) and as previously reported (Favier, M., et al., J Clin Invest 130, 6616-6630 (2020)). For habituation, all mice were individually housed in cages with running wheels for 7 days with unrestricted access to food, water and running wheel. After the adaptation period, all mice were maintained in the same running wheel cages for 8 additional days. Access to food was progressively restricted, from 8 h (day 1) to 2 h (day 8) per day. Body weight and food intake were measured daily before and after food access, respectively. […]. Mice were treated daily 30 min before the start of food access, during both baseline and food restriction phases.

[2] = compound 1 nM, absorbance 412 nm, 12 min incubation
[3] = compound 10 nM, absorbance 412 nm, 12 min incubation
[4] = compound 100 nM, absorbance 412 nm, 12 min incubation

acetylcholinesterase (AChE), sequence (P22303 32-614): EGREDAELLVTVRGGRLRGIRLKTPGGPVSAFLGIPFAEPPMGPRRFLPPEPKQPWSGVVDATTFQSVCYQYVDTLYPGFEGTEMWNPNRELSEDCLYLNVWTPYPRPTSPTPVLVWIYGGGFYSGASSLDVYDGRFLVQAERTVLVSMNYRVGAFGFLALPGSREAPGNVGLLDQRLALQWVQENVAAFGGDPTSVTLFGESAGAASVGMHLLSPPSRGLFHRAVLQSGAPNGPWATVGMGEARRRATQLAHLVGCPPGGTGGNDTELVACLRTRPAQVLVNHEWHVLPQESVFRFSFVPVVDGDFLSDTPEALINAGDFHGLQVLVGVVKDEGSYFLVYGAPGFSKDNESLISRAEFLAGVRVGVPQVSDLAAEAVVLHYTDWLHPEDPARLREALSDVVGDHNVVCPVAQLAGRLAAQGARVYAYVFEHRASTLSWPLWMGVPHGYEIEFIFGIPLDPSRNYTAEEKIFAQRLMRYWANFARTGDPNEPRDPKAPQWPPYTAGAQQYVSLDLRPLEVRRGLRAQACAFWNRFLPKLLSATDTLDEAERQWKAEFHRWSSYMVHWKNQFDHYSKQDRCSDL

## COc1ccc2c(c1)C=C/C(=C/Oc1cc3c(cc1OC)C(=O)C(CC1CCN(Cc4ccccc4)CC1)C3)N2C(C)C (centres unmarked) [Compound 56]
[1]; [2]
  inhibition at 0.001 µM: 50%
[1]; [3]
  inhibition at 0.01 µM: 75%
[1]; [4]
  inhibition at 0.1 µM: 100%
VGLUT3^T8I/T8I mice; 0.01 mg/kg daily i.p.
  percentage of mice weighing at least 75% of their baseline body weight: about 90%
VGLUT3^T8I/T8I mice; 0.03 mg/kg daily i.p., FIG. 1(B)
  percentage of mice weighing at least 75% of their baseline body weight: 60%
VGLUT3^T8I/T8I mice; donquine 0.01 mg/kg versus donepezil 0.03 mg/kg daily i.p., FIG. 1(C)
  efficiency in reducing the food restriction (food intake): more efficient than donepezil at 0.03 mg/kg

## COc1cc2c(cc1OC)C(=O)C(CC1CCN(Cc3ccccc3)CC1)C2 (centres unmarked) [Donepezil, donepezil, reference compound]
VGLUT3^T8I/T8I mice; donepezil 0.03 mg/kg versus donquine 0.01 mg/kg daily i.p., FIG. 1(D)
  efficiency in reducing the number of mice losing weight until 75% of baseline bodyweight or less: less efficient

## COc1cc2c(cc1OCc1cc[n+](C(C)C)c3ccccc13)CC(CC1CCN(Cc3ccccc3)CC1)C2=O (centres unmarked) [Compound 75]
[1]; [3]
  % Inhibition (10 nM): 100%
[1]; [4]
  % Inhibition (100 nM): 100%

## COc1cc2c(cc1OC[n+]1cccc3ccc(O)cc31)CC(CC1CCN(Cc3ccccc3)CC1)C2=O (centres unmarked) [Compound 57]
[1]
  inhibition at 0.01 µM: 100%
  inhibition at 0.1 µM: 100%

## COc1cc2c(cc1OCc1ccc3ccccc3[n+]1C(C)C)CC(CC1CCN(Cc3ccccc3)CC1)C2=O (centres unmarked) [Compound 76]
[1]; [3]
  inhibition at 0.01 µM: 100%
[1]; [4]
  inhibition at 0.1 µM: 100%

## COc1cc2c(cc1OCc1ccc3c(Cl)cc[n+](C)c3c1)CC(CC1CCN(Cc3ccccc3)CC1)C2=O (centres unmarked) [Compound 63]
[1]
  inhibition at 0.001 µM: 75%
  inhibition at 0.01 µM: 75%
  inhibition at 0.1 µM: 75%

## COc1cc2c(cc1OCc1ccc3cccc(N)c3[n+]1C)CC(CC1CCN(Cc3ccccc3)CC1)C2=O (centres unmarked) [Compound 62]
[1]; [3]
  inhibition at 0.01 µM: 100%
[1]; [4]
  inhibition at 0.1 µM: 100%

## COc1cc2c(cc1OC[n+]1cccc3cccc(N)c31)CC(CC1CCN(Cc3ccccc3)CC1)C2=O (centres unmarked) [Compound 59]
[1]; [3]
  inhibition at 0.01 µM: 100%
[1]; [4]
  inhibition at 0.1 µM: 100%

## COc1cc2c(cc1OCc1ccc3ccc[n+](C)c3c1)CC(CC1CCN(Cc3ccccc3)CC1)C2=O (centres unmarked) [Compound 64]
[1]; [2]
  inhibition at 0.001 µM: 25%
[1]; [3]
  inhibition at 0.01 µM: 100%
[1]; [4]
  inhibition at 0.1 µM: 100%
